US11434221B2, “Pyrazine-4-carbamate or -urea derivatives as herbicides” (Syngenta Participations AG, priority 2017, dated 2022)

Key:
Type in all cases: in vivo
Set-up in all cases: key: 5=total damage to plant; 0=no damage to plant
[1] = test system: Alopecurus myosuroides (ALOMY); experiment: Pre-emergence herbicidal activity, glasshouse pot test; conditions: sprayed one day after sowing, evaluated after 13 days
Method: (§1) Seeds of a variety of test species were sown in standard soil in pots: Triticum aestivium (TRZAW), Avena fatua (AVEFA), Alopecurus myosuroides (ALOMY), Echinochloa crus-galli (ECHCG), Lolium perenne (LOLPE), and Setaria faberi (SETFA). After cultivation for one day (pre-emergence) under controlled conditions in a glasshouse (at 24/16° C., day/night; 14 hours light; 65% humidity), the plants were sprayed with an aqueous spray solution derived from the formulation of the technical active ingredient in acetone/water (50:50) solution containing 0.5% Tween 20 (polyoxyethelyene sorbitan monolaurate, CAS RN 9005-64-5). The test plants were then grown in a glasshouse under controlled conditions (at 24/16° C., day/night; 14 hours light; 65% humidity) and watered twice daily. After 13 days, the test was evaluated (5=total damage to plant; 0=no damage to plant).

[2] = test system: Triticum aestivium (TRZAW); experiment: as above; conditions: sprayed one day after sowing, evaluated after 13 days
Method: as §1

[3] = test system: Setaria faberi (SETFA); experiment: as above; conditions: sprayed one day after sowing, evaluated after 13 days
Method: as §1

[4] = test system: Avena fatua (AVEFA); experiment: as above; conditions: sprayed one day after sowing, evaluated after 13 days
Method: as §1

[5] = test system: Echinochloa crus-galli (ECHCG); experiment: as above; conditions: sprayed one day after sowing, evaluated after 13 days
Method: as §1

[6] = test system: Lolium perenne (LOLPE); experiment: as above; conditions: sprayed one day after sowing, evaluated after 13 days
Method: as §1

[7] = test system: Alopecurus myosuroides (ALOMY); experiment: Post-emergence herbicidal activity, glasshouse pot test; conditions: sprayed after 8 days cultivation, evaluated after 13 days
Method: (§2) Seeds of a variety of test species were sown in standard soil in pots: Triticum aestivium (TRZAW), Avena fatua (AVEFA), Alopecurus myosuroides (ALOMY), Echinochloa crus-galli (ECHCG), Lolium perenne (LOLPE), and Setaria faberi (SETFA). After 8 days cultivation (post-emergence) under controlled conditions in a glasshouse (at 24/16° C., day/night; 14 hours light; 65% humidity), the plants were sprayed with an aqueous spray solution derived from the formulation of the technical active ingredient in acetone/water (50:50) solution containing 0.5% Tween 20 (polyoxyethelyene sorbitan monolaurate, CAS RN 9005-64-5). The test plants were then grown in a glasshouse under controlled conditions (at 24/16° C., day/night; 14 hours light; 65% humidity) and watered twice daily. After 13 days, the test was evaluated (5=total damage to plant; 0=no damage to plant).

[8] = test system: Triticum aestivium (TRZAW); experiment: as above; conditions: sprayed after 8 days cultivation, evaluated after 13 days
Method: as §2

[9] = test system: Setaria faberi (SETFA); experiment: as above; conditions: sprayed after 8 days cultivation, evaluated after 13 days
Method: as §2

[10] = test system: Avena fatua (AVEFA); experiment: as above; conditions: sprayed after 8 days cultivation, evaluated after 13 days
Method: as §2

[11] = test system: Echinochloa crus-galli (ECHCG); experiment: as above; conditions: sprayed after 8 days cultivation, evaluated after 13 days
Method: as §2

[12] = test system: Lolium perenne (LOLPE); experiment: as above; conditions: sprayed after 8 days cultivation, evaluated after 13 days
Method: as §2

Row | Compound | Control of weed species after pre-emergence application, ALOMY (damage score 0-5) ([1]; Rate 1000 g/ha) | Control of weed species after pre-emergence application, TRAZW (damage score 0-5) ([2]; Rate 1000 g/ha) | Control of weed species after pre-emergence application, SETFA (damage score 0-5) ([3]; Rate 1000 g/ha) | Control of weed species after pre-emergence application, AVEFA (damage score 0-5) ([4]; Rate 1000 g/ha) | Control of weed species after pre-emergence application, ECHCG (damage score 0-5) ([5]; Rate 1000 g/ha) | Control of weed species after pre-emergence application, LOLPE (damage score 0-5) ([6]; Rate 1000 g/ha) | Control of weed species after post-emergence application, ALOMY (damage score 0-5) ([7]; Rate 1000 g/ha) | Control of weed species after post-emergence application, TRAZW (damage score 0-5) ([8]; Rate 1000 g/ha) | Control of weed species after post-emergence application, SETFA (damage score 0-5) ([9]; Rate 1000 g/ha) | Control of weed species after post-emergence application, AVEFA (damage score 0-5) ([10]; Rate 1000 g/ha) | Control of weed species after post-emergence application, ECHCG (damage score 0-5) ([11]; Rate 1000 g/ha) | Control of weed species after post-emergence application, LOLPE (damage score 0-5) ([12]; Rate 1000 g/ha) | other results
1 | CC(C)(C)OC(=O)N(C(=O)OC(C)(C)C)c1ncc(-c2cncc(F)c2)nc1OCc1ccccc1 [Compound H8] | 0 | 0 | 2 | 0 | 1 | 1 | 0 | 0 | 1 | 1 | 1 | 0 | 
2 | C#Cc1nc(-c2cncc(F)c2)cnc1N(C(=O)OC(C)(C)C)C(=O)OC(C)(C)C [Compound H29] | 0 | 0 | 0 | 0 | 0 | 0 | 0 | 1 | 1 | 0 | 1 | 1 | 
3 | CC(C)=Cc1nc(-c2cncc(F)c2)cnc1N(C(=O)OC(C)(C)C)C(=O)OC(C)(C)C [Compound H14] | 0 | 0 | 3 | 0 | 2 | 2 | 0 | 0 | 4 | 1 | 2 | 1 | 
4 | CC(C)(C)OC(=O)N(C(=O)OC(C)(C)C)c1ncc(-c2cncc(F)c2)nc1C#N [Compound H9] | 0 | 0 | 5 | 1 | 2 | 1 | 0 | 0 | 5 | 3 | 3 | 1 | 
5 | CC(C)(C)OC(=O)Nc1ncc(-c2cncc(F)c2)nc1CO [Compound H22] | 0 | 0 | 0 | 0 | 0 | 0 | 0 | 0 | 2 | 1 | 1 | 1 | 
6 | CC(C)(C)OC(=O)N(C(=O)OC(C)(C)C)c1ncc(-c2cncc(F)c2)nc1C1CC1 [Compound H12] | 0 | 0 | 4 | 0 | 1 | 0 | 0 | 0 | 5 | 2 | 3 | 2 | 
7 | CC(C)(C)OC(=O)Nc1ncc(-c2cncc(F)c2)nc1C#N [Compound H10] | 0 | 0 | 4 | 0 | 2 | 0 | 0 | 0 | 5 | 1 | 2 | 1 | 
8 | CSc1cncc(-c2cnc(NC(=O)OC(C)(C)C)c(SC)n2)c1 [Compound H25] |  |  |  |  |  |  |  |  |  |  |  |  | Control of weed species after pre-emergence application, ALOMY (damage score 0-5) ([1]; Rate 250 g/ha): 0; Control of weed species after pre-emergence application, TRAZW (damage score 0-5) ([2]; Rate 250 g/ha): 0; Control of weed species after pre-emergence application, SETFA (damage score 0-5) ([3]; Rate 250 g/ha): 0; Control of weed species after pre-emergence application, AVEFA (damage score 0-5) ([4]; Rate 250 g/ha): 0; Control of weed species after pre-emergence application, ECHCG (damage score 0-5) ([5]; Rate 250 g/ha): 0; Control of weed species after pre-emergence application, LOLPE (damage score 0-5) ([6]; Rate 250 g/ha): 0; Control of weed species after post-emergence application, ALOMY (damage score 0-5) ([7]; Rate 250 g/ha): 0; Control of weed species after post-emergence application, TRAZW (damage score 0-5) ([8]; Rate 250 g/ha): 0; Control of weed species after post-emergence application, SETFA (damage score 0-5) ([9]; Rate 250 g/ha): 1; Control of weed species after post-emergence application, AVEFA (damage score 0-5) ([10]; Rate 250 g/ha): 1; Control of weed species after post-emergence application, ECHCG (damage score 0-5) ([11]; Rate 250 g/ha): 1; Control of weed species after post-emergence application, LOLPE (damage score 0-5) ([12]; Rate 250 g/ha): 1
9 | Cc1nc(-c2cncc(F)c2)cnc1NC(=O)OC(C)(C)C [Compound H17] | 0 | 0 | 4 | 2 | 4 | 3 | 2 | 0 |  | 3 | 4 | 3 | 
